From patent US20260226022A1, “CRYSTAL FORM AND USE OF PARP7 INHIBITOR AND SALT THEREOF” (QILU PHARMACEUTICAL CO., LTD., priority 2023, published 2026)
Entries after “also recorded” stand apart in the source; their conditions may differ.

Legend:
[1] = Hygroscopicity test by dynamic vapor sorption (DVS); assay type: physicochemical; conditions: for Hygroscopicity evaluation: Chinese Pharmacopoeia 2020 classes; for Weight gain at 80% RH / Weight gain at 90% RH: DVS, 25° C.; for Crystal form after DVS: XRPD before and after the DVS test
Protocol: The moisture adsorption of the sample was determined using a dynamic vapor sorption instrument from DVS Intrinsic. The sample was placed in a tared sample basket and weighed by the instrument automatically and analyzed according to the parameters in Table 10.

[2] = Influence factor tests (stability at temperature, humidity, light; HPLC purity and XRPD); assay type: physicochemical
Protocol: The purity was assayed using HPLC and the crystal form was assayed using XRPD on day 0, 2 and 7, and the experimental results are shown in Table 11.
The purity was assayed using HPLC and the crystal form was assayed using XRPD on day 0, 5 and 10, and the experimental results are shown in Table 12.

PARP7 = target: T1, PARP7 (Homo sapiens, UniProt Q7Z3E1); experiment: PARP7 in vitro enzymatic assay; assay type: biochemical
T1 sequence (Q7Z3E1 1-657): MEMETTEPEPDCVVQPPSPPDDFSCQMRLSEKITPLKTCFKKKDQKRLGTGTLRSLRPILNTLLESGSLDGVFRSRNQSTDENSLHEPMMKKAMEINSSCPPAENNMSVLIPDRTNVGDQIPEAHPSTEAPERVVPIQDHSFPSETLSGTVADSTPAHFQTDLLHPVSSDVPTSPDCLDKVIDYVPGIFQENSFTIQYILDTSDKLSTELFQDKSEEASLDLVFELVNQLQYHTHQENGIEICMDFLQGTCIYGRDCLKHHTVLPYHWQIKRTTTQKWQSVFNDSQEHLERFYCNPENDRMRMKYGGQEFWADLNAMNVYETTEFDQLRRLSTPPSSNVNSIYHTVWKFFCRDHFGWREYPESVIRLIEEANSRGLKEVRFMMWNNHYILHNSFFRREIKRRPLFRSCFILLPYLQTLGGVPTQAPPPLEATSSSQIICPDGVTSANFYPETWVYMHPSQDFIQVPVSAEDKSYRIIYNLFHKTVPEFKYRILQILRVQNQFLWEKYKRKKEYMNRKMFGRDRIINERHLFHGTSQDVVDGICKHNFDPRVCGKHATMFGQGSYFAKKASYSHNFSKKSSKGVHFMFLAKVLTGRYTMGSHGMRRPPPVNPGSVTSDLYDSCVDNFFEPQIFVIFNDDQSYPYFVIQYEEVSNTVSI
Protocol: In this experiment, the inhibitory effect of the compound of formula (I) on PARP7 enzyme activity was tested by serial dilution of the tested compounds and assayed in replicates. 1. A histone-coated 384-well plate was prepared by adding 25 μL of histone solution to each well and incubating at 4° C. overnight. 2. PBST buffer, blocking buffer and assay buffer were prepared. 3. The histone-coated 384-well plate was washed 3 times using PBST buffer. Blocking was performed at room temperature for 1 hour using 50 μL of blocking buffer. The plate was washed 3 times using PBST buffer. 4. Compound preparation: A 2000× compound was prepared in a 96-well source plate. 50 nL of the compound was transferred from the source plate to a 96-well intermediate plate. Each well was supplemented with 39.95 μL of assay buffer. The plate was shaken well and centrifuged at 1000 rpm for 1 minute. 5 μL of the compound in DMSO was transferred to each well. 5. Enzymatic reaction: An enzyme mixture was incubated at 25° C. for 10 minutes. 10 μL of the enzyme mixture was added and incubated with the compound for 10 minutes at room temperature. 10 μL of assay buffer was added to the negative control wells of the assay plate. 10 μL of 2.5× Biotin-NAD+ was added to each well, followed by incubation at 25° C. for 60 min. […] The plate was immediately read using Paradigm and detected for reads at Ex550/Em620. […]

[3] = In vivo pharmacokinetic determination in mice (intravenous bolus and oral); set-up: species or system C57BL/6 mice
[4] = In vivo pharmacokinetic determination in rats (intravenous bolus and oral); set-up: species or system SD rats
Source text: To study the in vivo plasma pharmacokinetic behavior of the compounds of the present application after single intravenous bolus injection and oral administration, using male C57BL/6 mice or SD male rats as tested animals.
Healthy adult C57BL/6 mice or SD rats (3 rats/group), male, from Shanghai Jihui Laboratory Animal Breeding Co., Ltd. and Charles River Laboratories Co., Ltd.
The intravenous bolus injection and oral groups were consisted of 3 mice or rats, and the dose of intravenous bolus injection was 1 mg/kg in a volume of 5 mL/kg, and the dose of oral administration was 5 mg/kg in a volume of 10 mL/kg. The solvent was 5% DMSO/5% Kolliphor HS15/90% Saline.
After the animals were administered, 0.02 mL of blood was collected intravenously at 0.0833(IV), 0.25, 0.5, 1, 2, 4, 8, and 24 hours. Blood was placed in EDTA-K2 tubes, centrifuged at 4° C. and 4600 rpm for 5 min to separate the plasma, and stored at −80° C.
1) 10 μL of plasma sample was precipitated by adding 200 μL of acetonitrile, vortexed and mixed, and centrifuged for 15 min.
2) The supernatant after treatment was diluted with water, and then analyzed for the concentration of the tested compounds by LC/MS/MS.
• Liquid phase conditions: Shimadzu LC-30AD; • Mass spectrometry conditions: AB Sciex API 5500; • Chromatographic column: Phenomenex Kinetex 2.6 μm C18; • Mobile phase: A: 5 mM ammonium acetate aqueous solution (containing 0.05 vol % of formic acid); B: acetonitrile (containing 0.1 vol % of formic acid) flow rate: 0.5 mL/min;
Pharmacokinetic parameters were calculated using WinNonlin 8.0 and the pharmacokinetic parameters of the drugs administered intravenously and orally to mice or rats are shown in Tables 17 and 18 below. Wherein, “Dose” denotes the administered dose, “CL” denotes the plasma clearance, “Vss” denotes the volume of distribution at steady state of the drug, “T1/2” denotes the half-life of the drug, “AUC” denotes the area under the concentration-time curve. “Cmax” denotes the peak drug concentration, and “F” indicates bioavailability.

[5] = male, mouse, plasma, C57BL/6 mice, intravenous, 1 mg/kg
[6] = male, mouse, plasma, C57BL/6 mice, oral, 5 mg/kg
[7] = male, rat, plasma, SD rats, intravenous, 1 mg/kg
[8] = male, rat, plasma, SD rats, oral, 5 mg/kg

SMILES: O=C(OCCc1c[nH]c(=O)c(C(F)(F)F)c1)N1CCN(c2ncc(C(F)(F)F)cn2)CC1 [Crystal form IV]
- Hygroscopicity evaluation ([1]; listed as crystal form IV): slight hygroscopicity; also recorded: slightly hygroscopic
- Weight gain at 80% RH [1]: 1.07%
- Weight gain at 80% RH ([1]; listed as crystal form IV): 1.07%
- Weight gain at 90% RH [1]: 1.11%
- Crystal form after DVS ([1]; listed as crystal form IV): no transformation of the crystal; also recorded: unchanged
- Purity (Area %) ([2]; 40° C./75% RH, day 2): 99.72 Area %
- Purity (Area %) ([2]; 40° C./75% RH, day 7): 99.62 Area %
- Purity (Area %) ([2]; 60° C., day 2): 99.73 Area %
- Purity (Area %) ([2]; 60° C., day 7): 99.65 Area %
- Purity (Area %) ([2]; T0, day 0): 99.73 Area %
- Physicochemical stability (conclusion in words) ([2]; high humidity): relatively stable
- Physicochemical stability (conclusion in words) ([2]; high temperature): relatively stable

SMILES: O=C(OCCc1c[nH]c(=O)c(C(F)(F)F)c1)N1CCN(c2ncc(C(F)(F)F)cn2)CC1 [Compound of formula (I), 2-(6-oxo-5-(trifluoromethyl)-1,6-dihydropyridin-3-yl)ethyl-4-(5-(trifluoromethyl)pyrimidin-2-yl) piperazine-1-carboxylate]
- Inhibition of PARP7 enzyme activity (conclusion in words) (PARP7): can effectively inhibit PARP7 enzyme activity
- F ([3]; C57BL/6 mice, oral, 5 mg/kg): 80%
- Exposure in plasma compared with control compound RBN-2397 ([3]; mouse plasma, same dose, intravenous bolus injection and oral administration): significantly higher exposure
- F ([4]; SD rats, oral, 5 mg/kg): 47%
- Exposure in plasma compared with control compound RBN-2397 ([4]; rat plasma, same dose, intravenous bolus injection and oral administration): significantly higher exposure

SMILES: O=C(OCCc1c[nH]c(=O)c(C(F)(F)F)c1)N1CCN(c2ncc(C(F)(F)F)cn2)CC1.[Na+] [Crystal form I]
- Hygroscopicity evaluation [1]: Hygroscopic (hygroscopic weight gain of less than 15.0% but not less than 2.0%)
- Hygroscopicity evaluation ([1]; listed as crystal form I): had hygroscopicity; also recorded: slightly hygroscopic
- Weight gain at 80% RH [1]: 13.29%
- Weight gain at 80% RH ([1]; listed as crystal form I): 13.29%
- Weight gain at 90% RH [1]: 13.77%
- Purity (Area %) ([2]; 25° C./75% RH, day 5): 99.69% Area %
- Purity (Area %) ([2]; 25° C./75% RH, day 10): 99.72% Area %
- Purity (Area %) ([2]; 25° C./90% RH, day 5): 99.71% Area %
- Purity (Area %) ([2]; 25° C./90% RH, day 10): 99.74% Area %
- Purity (Area %) ([2]; 40° C., day 5): 99.71% Area %
- Purity (Area %) ([2]; 40° C., day 10): 99.70% Area %
- Purity (Area %) ([2]; 60° C., day 5): 99.72% Area %
- Purity (Area %) ([2]; 60° C., day 10): 99.67% Area %
- Purity (Area %) ([2]; Light exposure, day 5): 99.67% Area %
- XRPD ([2]; Light exposure, day 5): Crystal form I
- Purity (Area %) ([2]; Light exposure, day 10): 99.61% Area %
- Purity (Area %) ([2]; T0, day 0): 99.69% Area %
- Physicochemical stability (conclusion in words) ([2]; high humidity): a transformation of the crystal occurs under high humidity conditions
- Physicochemical stability (conclusion in words) ([2]; high temperature): physicochemical stable at high temperature

SMILES: C[C@@H](COCCC(=O)N1CCN(c2ncc(C(F)(F)F)cn2)CC1)Nc1cn[nH]c(=O)c1C(F)(F)F [RBN-2397]
- F ([3]; C57BL/6 mice, oral, 5 mg/kg): 14%
- AUC [3, 5]: 288 ng·h/mL
- clearance [3, 5]: 56.7 mL/min/kg
- Vd ([3]; male, mouse, plasma, C57BL/6 mice, intravenous, 1 mg/kg, read-out: Vss): 0.6 L/kg
- AUC [3, 6]: 203 ng·h/mL
- Cmax [3, 6]: 612 ng/mL
- F ([4]; SD rats, oral, 5 mg/kg): 27%
- AUC [4, 7]: 193 ng·h/mL
- clearance [4, 7]: 85 mL/min/kg
- half-life [4, 7]: 12 min
- Vd ([4]; male, rat, plasma, SD rats, intravenous, 1 mg/kg, read-out: Vss): 1.2 L/kg
- AUC [4, 8]: 264 ng·h/mL
- Cmax [4, 8]: 319 ng/mL

SMILES: O=C(OCCc1c[nH]c(=O)c(C(F)(F)F)c1)N1CCN(c2ncc(C(F)(F)F)cn2)CC1 [Crystal form X]
- Hygroscopicity evaluation ([1]; listed as crystal form X): slight hygroscopicity
- Weight gain at 80% RH ([1]; listed as crystal form X): 1.4%
- Crystal form after DVS ([1]; listed as crystal form X): no transformation of the crystal
